ChEMBL document CHEMBL3044636, “Effectiveness of five insecticides for the control of adults and young stages of Cacopsylla melanoneura (Förster) (Hemiptera: Psyllidae) in a semi-field trial” (2010)
The source made the active and inactive calls. The calls are words filed in the database; no cut-off is given here.

Legend:
Cacopsylla melanoneura [1] = test: Insecticidal activity against young stage of Cacopsylla melanoneura in apple plant assessed as mortality at 16.6 g/ha treated for 14 days measured after 7 days relative to control; type: functional
Cacopsylla melanoneura [2] = test: Insecticidal activity against young stage of Cacopsylla melanoneura in apple plant assessed as mortality at 16.6 g/ha treated for 7 days measured after 7 days relative to control; type: functional
Cacopsylla melanoneura [3] = test: Insecticidal activity against young stage of Cacopsylla melanoneura in apple plant assessed as mortality at 16.6 g/ha treated for 1 hr measured after 7 days relative to control; type: functional
Cacopsylla melanoneura [4] = test: Insecticidal activity against adult of Cacopsylla melanoneura in apple plant assessed as overwintered female mortality at 16.6 g/ha treated for 7 days measured after 1 day relative to control; type: functional
Cacopsylla melanoneura [5] = test: Insecticidal activity against adult of Cacopsylla melanoneura in apple plant assessed as reduction of progeny per female at 16.6 g/ha treated for 1 hr measured after 7 days; type: functional, organism-based
Cacopsylla melanoneura [6] = test: Insecticidal activity against adult of Cacopsylla melanoneura in apple plant assessed as overwintered female mortality at 16.6 g/ha treated for 1 hr measured after 3 days relative to control; type: functional
Cacopsylla melanoneura [7] = test: Insecticidal activity against adult of Cacopsylla melanoneura in apple plant assessed as overwintered female mortality at 16.6 g/ha treated for 1 hr measured after 1 day relative to control; type: functional
Cacopsylla melanoneura [8] = test: Insecticidal activity against adult of Cacopsylla melanoneura in apple plant assessed as reduction of progeny per female at 16.6 g/ha treated for 14 days measured after 7 days; type: functional, organism-based
Cacopsylla melanoneura [9] = test: Insecticidal activity against adult of Cacopsylla melanoneura in apple plant assessed as overwintered female mortality at 16.6 g/ha treated for 14 days measured after 3 days relative to control; type: functional
Cacopsylla melanoneura [10] = test: Insecticidal activity against adult of Cacopsylla melanoneura in apple plant assessed as overwintered female mortality at 16.6 g/ha treated for 14 days measured after 1 day relative to control; type: functional
Cacopsylla melanoneura [11] = test: Insecticidal activity against adult of Cacopsylla melanoneura in apple plant assessed as reduction of progeny per female at 16.6 g/ha treated for 7 days measured after 7 days; type: functional, organism-based
Cacopsylla melanoneura [12] = test: Insecticidal activity against adult of Cacopsylla melanoneura in apple plant assessed as overwintered female mortality at 16.6 g/ha treated for 7 days measured after 3 days relative to control; type: functional
Cacopsylla melanoneura [13] = test: Insecticidal activity against adult of Cacopsylla melanoneura in apple plant assessed as overwintered female mortality at 300 g/ha treated for 1 hr measured after 1 day relative to control; type: functional
Cacopsylla melanoneura [14] = test: Insecticidal activity against adult of Cacopsylla melanoneura in apple plant assessed as reduction of progeny per female at 300 g/ha treated for 14 days measured after 7 days; type: functional, organism-based
Cacopsylla melanoneura [15] = test: Insecticidal activity against adult of Cacopsylla melanoneura in apple plant assessed as overwintered female mortality at 300 g/ha treated for 14 days measured after 3 days relative to control; type: functional
Cacopsylla melanoneura [16] = test: Insecticidal activity against adult of Cacopsylla melanoneura in apple plant assessed as overwintered female mortality at 300 g/ha treated for 14 days measured after 1 day relative to control; type: functional
Cacopsylla melanoneura [17] = test: Insecticidal activity against adult of Cacopsylla melanoneura in apple plant assessed as reduction of progeny per female at 300 g/ha treated for 7 days measured after 7 days; type: functional, organism-based
Cacopsylla melanoneura [18] = test: Insecticidal activity against adult of Cacopsylla melanoneura in apple plant assessed as overwintered female mortality at 300 g/ha treated for 7 days measured after 3 days relative to control; type: functional
Cacopsylla melanoneura [19] = test: Insecticidal activity against adult of Cacopsylla melanoneura in apple plant assessed as overwintered female mortality at 300 g/ha treated for 7 days measured after 1 day relative to control; type: functional
Cacopsylla melanoneura [20] = test: Insecticidal activity against adult of Cacopsylla melanoneura in apple plant assessed as reduction of progeny per female at 300 g/ha treated for 1 hr measured after 7 days; type: functional, organism-based
Cacopsylla melanoneura [21] = test: Insecticidal activity against adult of Cacopsylla melanoneura in apple plant assessed as overwintered female mortality at 300 g/ha treated for 1 hr measured after 3 days relative to control; type: functional
Cacopsylla melanoneura [22] = test: Insecticidal activity against young stage of Cacopsylla melanoneura in apple plant assessed as mortality at 300 g/ha treated for 14 days measured after 7 days relative to control; type: functional
Cacopsylla melanoneura [23] = test: Insecticidal activity against young stage of Cacopsylla melanoneura in apple plant assessed as mortality at 300 g/ha treated for 7 days measured after 7 days relative to control; type: functional
Cacopsylla melanoneura [24] = test: Insecticidal activity against young stage of Cacopsylla melanoneura in apple plant assessed as mortality at 300 g/ha treated for 1 hr measured after 7 days relative to control; type: functional

CC[C@H](C)[C@H]1O[C@]2(C=C[C@@H]1C)C[C@@H]1C[C@@H](C/C=C(\C)[C@@H](O[C@H]3C[C@H](OC)[C@@H](O[C@H]4C[C@H](OC)[C@@H](O)[C@H](C)O4)[C@H](C)O3)[C@@H](C)/C=C/C=C3\CO[C@@H]4[C@H](O)C(C)=C[C@@H](C(=O)O1)[C@]34O)O2.CO[C@H]1C[C@H](O[C@H]2[C@H](C)O[C@@H](O[C@@H]3/C(C)=C/C[C@@H]4C[C@@H](C[C@]5(C=C[C@H](C)[C@@H](C(C)C)O5)O4)OC(=O)[C@@H]4C=C(C)[C@@H](O)[C@H]5OC/C(=C\C=C\[C@@H]3C)[C@]54O)C[C@@H]2OC)O[C@@H](C)[C@@H]1O [ABAMECTIN]
Activity (Cacopsylla melanoneura [1]): 71.7%
Activity (Cacopsylla melanoneura [2]): 95%
Activity (Cacopsylla melanoneura [3]): 75%
Activity (Cacopsylla melanoneura [4]): 16.7%
Activity (Cacopsylla melanoneura [5]): Active
Activity (Cacopsylla melanoneura [6]): 36.7%
Activity (Cacopsylla melanoneura [7]): 33.3%
Activity (Cacopsylla melanoneura [8]): Active
Activity (Cacopsylla melanoneura [9]): 60%
Activity (Cacopsylla melanoneura [10]): 43.3%
Activity (Cacopsylla melanoneura [11]): Active
Activity (Cacopsylla melanoneura [12]): 30%

O=C(NC(=O)c1c(F)cccc1F)Nc1ccc(Cl)cc1 [DIFLUBENZURON]
Activity (Cacopsylla melanoneura [13]): 20%
Activity (Cacopsylla melanoneura [14]): Active
Activity (Cacopsylla melanoneura [15]): 63.3%
Activity (Cacopsylla melanoneura [16]): 46.7%
Activity (Cacopsylla melanoneura [17]): Active
Activity (Cacopsylla melanoneura [18]): 56.7%
Activity (Cacopsylla melanoneura [19]): 30%
Activity (Cacopsylla melanoneura [20]): Active
Activity (Cacopsylla melanoneura [21]): 56.7%
Activity (Cacopsylla melanoneura [22]): 86.7%
Activity (Cacopsylla melanoneura [23]): 100%
Activity (Cacopsylla melanoneura [24]): 98.3%
